Laboratory results reported in patent publication US8273754B2, “Substituted 1H-pyrazolo[3,4-D]pyrimidine-6-amine compounds” (ArQule, Inc., priority 2008, dated 2012).
Read-outs that look alike come from different tables or passages of the source.

Test system: cancer cells
Experiment: MTS cell growth inhibition assay (72 hours)
Type: cell-based
Experimental: Cells were maintained at 37° C., 5% CO2 in DMEM media supplemented with 1% fetal bovine serum, penicillin/streptomycin and fungizone (Invitrogen). Cells were seeded into 96-well tissue culture plates at 3000 per well and cultured at 37° C. for 18 hours. Test compounds were dissolved and diluted to 300× in DMSO then further diluted 1:40 in DMEM before addition to cells (1:7.5 dilution). Cells were incubated with test compounds for 72 hours followed by incubation with tetrazolium compound (3-(4,5-dimethylthiazol-2-yl)-5-(3-carboxymethoxyphenyl)-2-(4-sulfophenyl)-2H-tetrazolium, inner salt; MTS) and the electron coupling reagent, phenazine methosulfate (PMS) for 4 hours. […] The ability of compounds to inhibit cell growth in this assay is correlated with the reduction of dehydrogenase enzyme activity found in metabolically active cells. The measurement of the absorbance of the formazan was assessed using an ENVISION™ (Perkin Elmer) microplate reader at 492 nm. The calculated IC50 value is the concentration of the test compound that causes a 50% decrease in the absorbance. […] A=>79% inhibition, B=>50 to 79% inhibition, C=<50% inhibition.

[1] = Homo sapiens, DLD-1, 72 h, DLD-1 cells, read-out: DLD-1 MTS 72 hr at 10 μM
[2] = Homo sapiens, KATO III, 72 h, KATO III cells, read-out: KATO III MTS 72 hr at 10 μM
[3] = Homo sapiens, MDA-MB-231, 72 h, MDA-MB-231 cells, read-out: MDA-MB-231 MTS 72 hr at 10 μM
[4] = Homo sapiens, NCI-H1299, 72 h, NCI-H1299 cells, read-out: NCI-H1299 MTS 72 hr at 10 μM
[5] = PaCa-2, 72 h, PACA-2 cells, read-out: PACA-2 MTS 72 hr at 10 μM

COc1cc(CN2CC(Nc3nc(N)nc4[nH]ncc34)Cc3ccccc32)ccc1OCc1ccccc1 (stereo not shown) [Compound 156, N4-{1-[4-(benzyloxy)-3-methoxybenzyl]-1,2,3,4-tetrahydroquinolin-3-yl}-1H-pyrazolo[3,4-d]pyrimidine-4,6-diamine]
inhibition at 10 µM [1]: 50 to 79% | inhibition at 10 µM [2]: < 50% | inhibition at 10 µM [3]: < 50% | inhibition at 10 µM [4]: < 50% | inhibition at 10 µM [5]: < 50%

Nc1nc(NC2CCN(S(=O)(=O)c3ccc(Cl)c(Cl)c3)c3ccccc3C2)c2cn[nH]c2n1 (stereo not shown) [Compound 179, N4-{1-[(3,4-dichlorophenyl)sulfonyl]-2,3,4,5-tetrahydro-1H-1-benzazepin-4-yl}-1H-pyrazolo[3,4-d]pyrimidine-4,6-diamine]
inhibition at 10 µM [1]: 50 to 79% | inhibition at 10 µM [2]: 50 to 79% | inhibition at 10 µM [3]: < 50% | inhibition at 10 µM [4]: < 50% | inhibition at 10 µM [5]: < 50%

COc1ccc(Br)cc1CN1CC(Nc2nc(N)nc3[nH]ncc23)Cc2ccccc21 (stereo not shown) [Compound 144, N4-[1-(5-bromo-2-methoxybenzyl)-1,2,3,4-tetrahydroquinolin-3-yl]-1H-pyrazolo[3,4-d]pyrimidine-4,6-diamine]
inhibition at 10 µM [1]: > 79% | inhibition at 10 µM [2]: > 79% | inhibition at 10 µM [3]: > 79% | inhibition at 10 µM [4]: > 79% | inhibition at 10 µM [5]: > 79%

CC1(C(=O)N2CC(Nc3nc(N)nc4[nH]ncc34)Cc3ccccc32)CCCCC1 (stereo not shown) [Compound 96, (3-(6-amino-1H-pyrazolo[3,4-d]pyrimidin-4-ylamino)-3,4-dihydroquinolin-1(2H)-yl)(1-methylcyclohexyl)methanone]
inhibition at 10 µM [1]: < 50% | inhibition at 10 µM [2]: < 50% | inhibition at 10 µM [3]: < 50% | inhibition at 10 µM [4]: < 50% | inhibition at 10 µM [5]: < 50%

Nc1nc(NC2Cc3ccccc3N(S(=O)(=O)c3ccc(NC(=O)NC4CCCc5ccccc54)cc3)C2)c2cn[nH]c2n1 (stereo not shown) [Compound 192, 1-[4-({3-[(6-amino-1H-pyrazolo[3,4-d]pyrimidin-4-yl)amino]-3,4-dihydroquinolin-1(2H)-yl}sulfonyl)phenyl]-3-(1,2,3,4-tetrahydronaphthalen-1-yl)urea]
inhibition at 10 µM [1]: > 79% | inhibition at 10 µM [2]: > 79% | inhibition at 10 µM [3]: > 79% | inhibition at 10 µM [4]: > 79% | inhibition at 10 µM [5]: > 79%

COC(=O)c1ccccc1NC(=O)N1CC(Nc2nc(N)nc3[nH]ncc23)Cc2ccccc21 (stereo not shown) [Compound 119, methyl 2-(3-(6-amino-1H-pyrazolo[3,4-d]pyrimidin-4-ylamino)-1,2,3,4-tetrahydroquinoline-1-carboxamido)benzoate]
inhibition at 10 µM [1]: > 79% | inhibition at 10 µM [2]: > 79% | inhibition at 10 µM [3]: > 79% | inhibition at 10 µM [4]: > 79% | inhibition at 10 µM [5]: > 79%

Cc1ccc(F)c(CN2CC(Nc3nc(N)nc4[nH]ncc34)Cc3ccccc32)c1 (stereo not shown) [Compound 135, N4-[1-(2-fluoro-5-methylbenzyl)-1,2,3,4-tetrahydroquinolin-3-yl]-1H-pyrazolo[3,4-d]pyrimidine-4,6-diamine]
inhibition at 10 µM [1]: > 79% | inhibition at 10 µM [2]: > 79% | inhibition at 10 µM [3]: 50 to 79% | inhibition at 10 µM [4]: 50 to 79% | inhibition at 10 µM [5]: > 79%

CC(C)(C)c1ccc(OCC(=O)N2CC(Nc3nc(N)nc4[nH]ncc34)Cc3ccccc32)cc1 (stereo not shown) [Compound 97, 1-(3-(6-amino-1H-pyrazolo[3,4-d]pyrimidin-4-ylamino)-3,4-dihydroquinolin-1(2H)-yl)-2-(4-tert-butylphenoxy)ethanone]
inhibition at 10 µM [1]: 50 to 79% | inhibition at 10 µM [2]: 50 to 79% | inhibition at 10 µM [3]: 50 to 79% | inhibition at 10 µM [4]: < 50% | inhibition at 10 µM [5]: < 50%

CCc1ccccc1NC(=O)N1CC(Nc2nc(N)nc3[nH]ncc23)Cc2ccccc21 (stereo not shown) [Compound 107, 3-(6-amino-1H-pyrazolo[3,4-d]pyrimidin-4-ylamino)-N-(2-ethylphenyl)-3,4-dihydroquinoline-1(2H)-carboxamide]
inhibition at 10 µM [1]: < 50% | inhibition at 10 µM [2]: < 50% | inhibition at 10 µM [3]: < 50% | inhibition at 10 µM [4]: < 50% | inhibition at 10 µM [5]: < 50%

Cc1ccc(CN2CC(Nc3nc(N)nc4[nH]ncc34)Cc3ccccc32)cc1C (stereo not shown) [Compound 130, N4-[1-(3,4-dimethylbenzyl)-1,2,3,4-tetrahydroquinolin-3-yl]-1H-pyrazolo[3,4-d]pyrimidine-4,6-diamine]
inhibition at 10 µM [1]: < 50% | inhibition at 10 µM [2]: < 50% | inhibition at 10 µM [3]: < 50% | inhibition at 10 µM [4]: < 50% | inhibition at 10 µM [5]: < 50%

Nc1nc(NC2Cc3ccccc3N(S(=O)(=O)c3cccc(NC(=O)Nc4c(F)cccc4C(F)(F)F)c3)C2)c2cn[nH]c2n1 (stereo not shown) [Compound 204, 1-[3-({3-[(6-amino-1H-pyrazolo[3,4-d]pyrimidin-4-yl)amino]-3,4-dihydroquinolin-1(2H)-yl}sulfonyl)phenyl]-3-[2-fluoro-6-(trifluoromethyl)phenyl]urea]
inhibition at 10 µM [1]: < 50% | inhibition at 10 µM [2]: < 50% | inhibition at 10 µM [3]: < 50% | inhibition at 10 µM [4]: < 50% | inhibition at 10 µM [5]: 50 to 79%

COc1ccc(Oc2ccccc2CN2CC(Nc3nc(N)nc4[nH]ncc34)Cc3ccccc32)cc1 (stereo not shown) [Compound 153, N4-{1-[2-(4-methoxyphenoxy)benzyl]-1,2,3,4-tetrahydroquinolin-3-yl}-1H-pyrazolo[3,4-d]pyrimidine-4,6-diamine]
inhibition at 10 µM [1]: 50 to 79% | inhibition at 10 µM [2]: 50 to 79% | inhibition at 10 µM [3]: < 50% | inhibition at 10 µM [4]: < 50% | inhibition at 10 µM [5]: < 50%

COc1cccc(S(=O)(=O)N2CCC(Nc3nc(N)nc4[nH]ncc34)Cc3ccccc32)c1 (stereo not shown) [Compound 175, N4-{1-[(3-methoxyphenyl)sulfonyl]-2,3,4,5-tetrahydro-1H-1-benzazepin-4-yl}-1H-pyrazolo[3,4-d]pyrimidine-4,6-diamine]
inhibition at 10 µM [1]: < 50% | inhibition at 10 µM [2]: < 50% | inhibition at 10 µM [3]: < 50% | inhibition at 10 µM [4]: < 50% | inhibition at 10 µM [5]: < 50%

Nc1nc(NC2Cc3ccccc3N(C(=O)c3c(F)cc(F)cc3F)C2)c2cn[nH]c2n1 (stereo not shown) [Compound 89, (3-(6-amino-1H-pyrazolo[3,4-d]pyrimidin-4-ylamino)-3,4-dihydroquinolin-1(2H)-yl)(2,4,6-trifluorophenyl)methanone]
inhibition at 10 µM [1]: < 50% | inhibition at 10 µM [2]: < 50% | inhibition at 10 µM [3]: < 50% | inhibition at 10 µM [4]: < 50% | inhibition at 10 µM [5]: < 50%

Nc1nc(NC2Cc3ccccc3N(C(=O)Nc3ccc(C(F)(F)F)cc3)C2)c2cn[nH]c2n1 (stereo not shown) [Compound 117, 3-(6-amino-1H-pyrazolo[3,4-d]pyrimidin-4-ylamino)-N-(4-(trifluoromethyl)phenyl)-3,4-dihydroquinoline-1(2H)-carboxamide]
inhibition at 10 µM [1]: < 50% | inhibition at 10 µM [2]: < 50% | inhibition at 10 µM [3]: < 50% | inhibition at 10 µM [4]: < 50% | inhibition at 10 µM [5]: < 50%

Nc1nc(NC2Cc3ccccc3N(Cc3cccc(Oc4ccc(Cl)cc4)c3)C2)c2cn[nH]c2n1 (stereo not shown) [Compound 164, N4-{1-[3-(4-chlorophenoxy)benzyl]-1,2,3,4-tetrahydroquinolin-3-yl}-1H-pyrazolo[3,4-d]pyrimidine-4,6-diamine]
inhibition at 10 µM [1]: 50 to 79% | inhibition at 10 µM [2]: 50 to 79% | inhibition at 10 µM [3]: < 50% | inhibition at 10 µM [4]: < 50% | inhibition at 10 µM [5]: < 50%

Nc1nc(NC2Cc3ccccc3N(S(=O)(=O)c3ccc(-c4ccc(Cl)cc4)cc3)C2)c2cn[nH]c2n1 (stereo not shown) [Compound 75, N4-(1-(4′-chlorobiphenyl-4-ylsulfonyl)-1,2,3,4-tetrahydroquinolin-3-yl)-1H-pyrazolo[3,4-d]pyrimidine-4,6-diamine]
inhibition at 10 µM [1]: > 79% | inhibition at 10 µM [2]: > 79% | inhibition at 10 µM [3]: > 79% | inhibition at 10 µM [4]: 50 to 79% | inhibition at 10 µM [5]: > 79%

Nc1nc(NC2Cc3ccccc3N(S(=O)(=O)c3ccc(NC(=O)Nc4cc(C(F)(F)F)ccc4F)cc3)C2)c2cn[nH]c2n1 (stereo not shown) [Compound 196, 1-[4-({3-[(6-amino-1H-pyrazolo[3,4-d]pyrimidin-4-yl)amino]-3,4-dihydroquinolin-1(2H)-yl}sulfonyl)phenyl]-3-[2-fluoro-5-(trifluoromethyl)phenyl]urea]
inhibition at 10 µM [1]: > 79% | inhibition at 10 µM [2]: > 79% | inhibition at 10 µM [3]: > 79% | inhibition at 10 µM [4]: 50 to 79% | inhibition at 10 µM [5]: > 79%

Cc1ccc(S(=O)(=O)N2CC(Nc3nc(N)nc4[nH]ncc34)Cc3ccccc32)cc1 (stereo not shown) [Compound 22, N4-(1-tosyl-1,2,3,4-tetrahydroquinolin-3-yl)-1H-pyrazolo[3,4-d]pyrimidine-4,6-diamine]
inhibition at 10 µM [1]: < 50% | inhibition at 10 µM [2]: < 50% | inhibition at 10 µM [3]: < 50% | inhibition at 10 µM [4]: < 50% | inhibition at 10 µM [5]: < 50%

Nc1nc(NC2Cc3ccccc3N(S(=O)(=O)c3ccc(NC(=O)Nc4ccc(C(F)(F)F)cc4)cc3)C2)c2cn[nH]c2n1 (stereo not shown) [Compound 188, 1-[4-({3-[(6-amino-1H-pyrazolo[3,4-d]pyrimidin-4-yl)amino]-3,4-dihydroquinolin-1(2H)-yl}sulfonyl)phenyl]-3-[4-(trifluoromethyl)phenyl]urea]
inhibition at 10 µM [1]: > 79% | inhibition at 10 µM [2]: > 79% | inhibition at 10 µM [3]: > 79% | inhibition at 10 µM [4]: > 79% | inhibition at 10 µM [5]: > 79%
